Results taken from US20180022819A1, “COMPOSITIONS AND METHODS FOR COMBINATION THERAPY WITH PROSTATE-SPECIFIC MEMBRANE ANTIGEN BINDING PROTEINS” (APTEVO RESEARCH AND DEVELOPMENT LLC, priority 2015, published 2018).

What was measured:
LNCaP cells [1] = assay: Effect of enzalutamide on redirected T-cell cytotoxicity in LNCaP cells expressing GFP (Example 1); format: cell-based, human; conditions: enzalutamide alone, […] nM in 0.2% DMSO, no T-cells, 4 days
Experimental: A titration of the anti-PSMA bispecific molecule TSC249 (protein sequence of SEQ ID NO: 78 in Table 3) was added to all sets of LNCaP cells in the amounts shown on the x-axis. T-cells and DMSO were added to the first set of LNCaP cells (leftmost set of bars). […] No T-cells and DMSO were added to the third set of LNCaP cells (set of bars second from the right). […] LNCaP cell growth (number of live cells) was measured by overall fluorescence and expressed as a fraction of live cells relative to the cells untreated with TSC249 on the y-axis.
LNCaP cells expressing GFP were cultured with donor T-cells at a 3:1 ratio of T-cells to LNCaP target cells for 4 days. […] DMSO alone was added to other samples. A titration of the anti-PSMA bispecific molecule TSC249 (protein sequence of SEQ ID NO: 78 in Table 3) was added to the cell cultures. LNCaP cell growth (number of live cells) was monitored by overall fluorescence.

22Rv1 cells [2] = assay: Chromium-51 release assay of redirected T-cell cytotoxicity against 22Rv1 cells (Example 5); format: cell-based, human; conditions: 22Rv1 cells resistant to enzalutamide, 10 μM enzalutamide pre-treatment
Experimental: FIG. 3 (top panel) is a graph showing the results of a chromium-51 release assay measuring the effectiveness of the anti-PSMA bispecific molecule TSC249 at inducing redirected T-cell cytotoxicity in 4 hours against enzalutamide-treated and untreated prostate cancer 22Rv1 cells. Percent specific lysis relative to a total lysis control is shown on the y-axis. Concentration (pM) of the anti-PSMA bispecific molecule TSC249 is shown on the x-axis.
To compare the sensitivity of enzalutamide-treated and untreated 22Rv1 prostate cancer cells to target-dependent T-cell cytotoxicity, a bispecific binding molecule targeting PSMA and CD3 was tested in a chromium (^51Cr) release assay using donor T-cells as effector cells. [See, e.g., US 2014/0161800 A1, which describes multispecific binding molecules that bind to prostate-specific membrane antigen (PSMA) and CD3.]
Cytotoxicity was assessed by a ^51Cr release assay. […]
Plates were incubated for 4 hours, spun at 225×g for 3 minutes, and 25 μL of supernatant was transferred from each well to the corresponding well of a 96-well LUMAPLATE® sample plate (Perkin Elmer). Sample plates were allowed to air dry in a chemical safety hood for 18 hours, and then radioactivity was read on a Topcount scintillation counter using a standard protocol. […]

LNCaP cells [3] = assay: Growth inhibition of LNCaP-GFP cells with primary human T-cells, 4 days, with combination index analysis (Example 6); format: cell-based; conditions: enzalutamide plus TSC249 over a wide range of concentrations, T-cells, 4 days
Experimental: Additional procedures are described in Example 6. Percentage of live cells relative to an untreated control is shown on the y-axis.
Combination indices can indicate additive effects (CI=1), synergism (CI<1), or antagonism (CI>1).
Overall fluorescent signal from GFP enabled the quantitation of living LNCaP target cells in isolation from T-cells. […] TSC249 was added to have final concentrations of 125, 62.5, 31.25, 15.6, 7.8, 3.9, or 1.95 pM, or none. T-cells from several donors were used in replicate experiments, added at a ratio of 45,000 T-cells to 15,000 LNCaP cells per well.
After 4 days culture at 37° C. in 5% CO2, media was aspirated from wells and […] of 0.4% NP-40 was added to each well. Fluorescent signal from GFP in LNCaP cells adherent in wells was detected by a Spectramax plate reader, reading from the bottom of the wells. […]
The combination index theorem developed by Chou and Talalay was used to determine the interaction between the two compounds in their anti-cancer activity (see Chou, Cancer Res. 2010 Jan. 15; 70(2):440-6; Chou, Pharmacol Rev. 2006 September; 58(3):621-81). For each plate, relative fluorescence units (RFU) of all wells were normalized to the RFU of the well containing cells only, i.e., the proportion of living LNCaP cells in each well was expressed in relation to untreated LNCaP cells. […] Mean values were calculated from three replicates. […]

22Rv1 cells [4] = assay: Flow cytometry: effect of prolonged enzalutamide treatment on PSMA expression level of 22Rv1 cells (Example 4); format: cell-based, human; conditions: 10 μM enzalutamide
Source text: Mean fluorescence intensity (MFI) of bound molecules on live cells is shown on the y-axis. Concentration (nM) of the anti-PSMA monoclonal antibody 107-1A4 labeled with FITC is shown on the x-axis.
22Rv1 cells (PSMA+ at low level) were obtained from ATCC (Manassas, Va.) and cultured according to the ATCC protocol in RPMI-1640 media plus 10% FBS. […] All four cultures were harvested, stained for PSMA with FITC-labeled anti-PSMA monoclonal antibody 107-1A4 (Acris), and PSMA expression assayed by standard flow cytometry procedures. 22Rv1 cells were harvested with trypsin, and placed into FACS buffer (PBS+0.5% BSA [Equitech]+2 mM EDTA [Life Technologies]) at 1×10e6 per ml. FITC-107-1A4 was prepared at 36 nM in FACS buffer, and serially diluted 1:3, before adding 50 μl to 2×10e5 22Rv1 cells which had been pelleted in a 96 well plate. After 30 minute incubation on ice, cells were washed 3 times in FACS buffer, resuspended in FACS buffer, and data acquired on a BD LSRII flow cytometer. The sample files were analyzed using FlowJo software; the median fluorescence intensity (MFI) of the live population of 22Rv1 cells in each well was calculated after gating on live cells (forward vs side scatter). Median fluorescence intensities were fit to a 4-parameter logistic curve and graphed as concentration vs. MFI using GraphPad PRISM® software.

## CNC(=O)c1ccc(N2C(=S)N(c3ccc(C#N)c(C(F)(F)F)c3)C(=O)C2(C)C)cc1F [enzalutamide]
LNCaP cells [1]
  reduction of live cells: ~20%
22Rv1 cells [2]
  sensitivity of target cells to T-cell mediated lysis: increasing the sensitivity
LNCaP cells [3]
  live cell signal when combined with the other drug: further decrease in live cell signal
22Rv1 cells [4]; one week of incubation, vs cells cultured without enzalutamide
  MFI from binding of FITC-107-1A4 to the 22Rv1 cells (PSMA expression): increase in the MFI
22Rv1 cells [4]; three weeks of incubation
  MFI from binding of FITC-107-1A4 to the 22Rv1 cells (PSMA expression): no additional increases
22Rv1 cells [4]; two weeks of incubation
  MFI from binding of FITC-107-1A4 to the 22Rv1 cells (PSMA expression): additional increase in the MFI value
